Laboratory results from ChEMBL document CHEMBL1275593 (2010).
≈ marks a conversion by molar mass, not a printed value.

Assays:
Bacillus anthracis [1] = experiment: microbe, parasite or virus in culture; details: BA103
Bacillus anthracis [2] = experiment: microbe, parasite or virus in culture; details: BA104

O=C(O)c1cn(C2CC2)c2cc(N3CCNCC3)c(F)cc2c1=O [CIPROFLOXACIN]
MIC (Bacillus anthracis [1]): 0.064 µg/mL (≈ 0.193 µM)
MIC (Bacillus anthracis [2]): 0.064 µg/mL (≈ 0.193 µM)
